Assays:
Assay type in all cases: cell-based, human
UBE3A [1] = assay: UBE3A steady state RNA (qRT-PCR) in GABAergic iPSC-derived neurons; conditions: 10-point dose curve 1 nM-30 μM; 14 DIV to 20 DIV
SNORD116 snoRNAs = assay: RNA-sequencing of Angelman syndrome iPSC neurons: SNORD116 snoRNAs; conditions: 30 μM; six days post-treatment; RNA-seq
Description: (§1) RNA was isolated using Qiagen RNAeasy Plus (74136, Qiagen, Hilden, Germany). RNA concentration was determined using Qubit Fluorometric Quantitation (Thermo Fisher Scientific) and RNA quality was assessed using a 4200 Agilent TapeStation (Agilent, Santa Clara, Calif.). RNA-sequencing libraries were generated using the Illumina TruSeq Stranded Total RNA kit (20020597, Illumina, Inc., San Diego, Calif.) according to the manufacturer's protocol. 75 base-pair paired-end sequencing was performed using a NextSeq 500 (IIlumina, San Diego, Calif.) at the Texas A&M Institute for Genome Sciences and Society Genomics core. Raw sequencing reads were processed using CASAVA. The resulting FASTQ sequences were examined using FASTQC. […]
(§2) To determine whether ASO-4.4.PS.L and ASO-6.1.PO-1.O affect the levels of RNA transcripts encoded by the PWS polycistronic transcript, RNA-sequencing was performed on AS iPS cells treated with each ASO and the steady state RNA levels of SNURF, SNRPN, the SNORD116 host-gene transcript (SNHG116), the SNORD116 snoRNAs, IPW, the SNORD115 host-gene transcript (SNHG115), the SNORD115 snoRNAs, and UBE3A-AS were quantified. UBE3A steady state RNA levels were also measured. […]

SNORD115 snoRNAs = assay: RNA-sequencing of Angelman syndrome iPSC neurons: SNORD115 snoRNAs; conditions: 30 μM; six days post-treatment; RNA-seq
Description: as §1, §2

UBE3A [2] = assay: UBE3A steady state RNA (qRT-PCR) in glutamatergic iPSC-derived neurons; conditions: 14 DIV to 20 DIV, 10-point dose curve
Description: ASO-4 and ASO-6.1 were also examined in glutamatergic iPSC-derived neurons. Glutamatergic iPSC-derived neurons were treated at 14 DIV with a 10-point ½ log dose response curve of ASO-4 and ASO-6.1 [1 nM, 3 nM, 10 nM, 30 nM, 100 nM, 300 nM, 1 μM, 3 μM, 10 μM, and 30 μM (n=3)]. At 20 DIV, the IC50 and Emax of each ASO was estimated as described above (FIG. 5E-F and Table 15).
GABAergic and glutamatergic induced pluripotent stem cell (iPSC) derived neural precursor cells (NRC-100-010-001 and GNC-301-030-001, Cellular Dynamics International, Madison Wis.) were differentiated into neurons according to the manufactures protocol. Briefly, neural precursor cells were thawed and resuspended in chemically defined medium and added to sterile-culture plates coated with poly-D-lysine and laminin. The medium was replaced 24 hr after plating and then one-half of the medium was replaced every 3-5 days afterwards. […]
The steady state RNA levels of target transcripts were measured using TaqMan quantitative reverse-transcription PCR (qRT-PCR) assays. […] Cycling conditions were 2 minutes at 50° C., 10 minutes at 95° C., and 40 cycles of 15 seconds at 95° C. and 1 minute at 60° C., with readings taken at the 60° C. step of every cycle. […] Data was retrieved and analyzed with the BIORAD CFX Maestro software (Bio-Rad Laboratories). […]

Row | Molecule | effect on total UBE3A RNA levels (in words) (UBE3A [1]) | Difference, SNORD116 RNA level relative to vehicle (SNORD116 snoRNAs) | Difference, SNORD115 RNA level relative to vehicle (SNORD115 snoRNAs) | effect on UBE3A RNA levels (in words) (UBE3A [2])
1 | CC[C@@]1(O)C(=O)OCc2c1cc1n(c2=O)Cc2cc3c(CN(C)C)c(O)ccc3nc2-1 [Topotecan, reference compound] | increased total UBE3A RNA levels in a dose-dependent manner, except for Topotecan at higher concentrations | – | – | –
2 | A^L*G^L*A^L*a*t*g*g*c*a*c*a*t*c*t*5mC^L*T^L*T^L*G^L (NNNATGGCACATCTNNNN; LNA gapmer, PS, 5-methylcytosine, chemistry not fully specified) [ASO-4.4.PS.L] | – | 0.27 | −0.26 | –
3 | C^O*U^O*G^O*G^O*t*g*t*c*a*a*c*a*a*g*C^O*C^O*A^O*A^O [ASO-6.1] | – | – | – | increased UBE3A RNA levels in a dose dependent manner
4 | C^O*U^O*G^O*G^O-t*g*t*c*a*a*c*a*a*g-C^O*C^O*A^O*A^o [ASO-6.1.PO-1.O] | – | −0.04 | 0.24 | –
5 | U^O*A^O*G^O*A^O*A^O*t*g*g*c*a*c*a*t*c*t*C^O*U^O*U^O*G^O*G^O [ASO-4] | increased total UBE3A RNA levels in a dose-dependent manner | – | – | increased UBE3A RNA levels in a dose dependent manner
